In patent US11365227B2, “Peptide and pharmaceutical compositions of same for use as an antimicrobial and in cancer treatment” (UNIVERSITAT DE VALÈNCIA, priority 2017, dated 2022):
Where a SMILES comes first, the peptide text is derived from it.

System: S. aureus
Assay: Scanning electron microscopy of S. aureus cells treated with peptides
Format: cell-based, Staphylococcus aureus subsp. aureus CECT 4013
Settings: 25 μg/mL, 1 h
Method: The cells were prepared in the same way as for the flow cytometry technique and the same aliquots and treatments were performed. The samples were incubated at 37° C. for 1 h. The bacteria were fixed with Karnosky (2.5% paraformaldehyde and 0.5 glutaraldehyde) for 2 h at 4° C. After washing (centrifuging and eliminating the supernatant) they were fixed with 2% osmium tetraoxide for another 2 h, washed again and filtered with a 0.2 μm filter. The cells were then dehydrated in graded ethanol series (30°, 50°, 70°, 90°, 100°) for 10 min in each gradation. To carry out the critical point drying, the ethanol was replaced with liquid CO2, the temperature was increased to accelerate evaporation and the pressure was lowered slowly to conserve the exact shape of the bacteria. Finally, shading with gold palladium was performed for 2 min observing the results in the equipment FEG-SEM HITACHI S4800 at 10 Kv.
Scanning electron microscopy provides high-resolution images used to view the damage caused by the peptides to the bacterial membrane. The cells of S. aureus CECT 4013 were treated with the peptides hBD-3, TcDef3-pep and PaSK at a concentration of 25 μg/mL, for 1 h, and analysed using scanning electron microscopy (FIG. 4). In cells without treatment the circular and uniform form typical of S. aureus was observed, with the intact membrane, while in treated cells various types of morphological alterations can be seen. […] With this treatment small circular structures are observed, smaller than the cells of S. aureus.

CC[C@H](C)[C@H](NC(=O)[C@H](CCCNC(=N)N)NC(=O)[C@H](CCCNC(=N)N)NC(=O)[C@H](CCCCN)NC(=O)[C@H](CC(N)=O)NC(=O)[C@H](CS)NC(=O)[C@H](Cc1ccc(O)cc1)NC(=O)CNC(=O)CNC(=O)[C@H](CCCNC(=N)N)NC(=O)[C@H](CCCCN)NC(=O)[C@H](CCCNC(=N)N)NC(=O)[C@H](CCCCN)NC(=O)[C@H](CC(C)C)NC(=O)[C@H](CC(C)C)NC(=O)[C@H](CS)NC(=O)[C@H](Cc1c[nH]cn1)NC(=O)[C@H](C)NC(=O)[C@H](C)NC(=O)[C@H](CS)NC(=O)[C@H](C)NC(=O)[C@H](C)NC(=O)[C@H](Cc1c[nH]cn1)NC(=O)[C@H](CC(N)=O)NC(=O)[C@@H](NC(=O)[C@@H](N)CCCCN)C(C)C)C(=O)N[C@@H](CS)C(=O)N[C@H](C(=O)N[C@@H](CS)C(=O)N[C@@H](CCCNC(=N)N)C(=O)N[C@@H](CC(N)=O)C(=O)O)C(C)C [PaSK] (H-KVNHAACAAHCLLKRKRGGYCNKRRICVCRN-OH; N-terminus and C-terminus assumed)
biofilm formation, scanning electron microscopy: biofilm produced | morphological alterations, scanning electron microscopy: complete cell disintegration
